Data published in EPA's ToxRefDB 2.

Experiments:
[1] = system: mouse; conditions: Subchronic oral toxicity in rodents, cd1, Feed, dose end: 13 week, group: systemic
[2] = system: mouse; conditions: Subchronic oral toxicity in rodents, cd1, Feed, dose end: 17 week, group: systemic, systemic / organ weight / liver / absolute + systemic / organ weight / liver / relative to body weight + systemic / organ weight / liver / …
[3] = system: rabbit; conditions: Prenatal developmental toxicity study, new zealand white, Oral, Gavage/Intubation, dose end: 19 GD
[4] = system: rat; conditions: Prenatal developmental toxicity study, sprague dawley, Oral, Gavage/Intubation, dose end: 15 GD
[5] = system: mouse; conditions: Subchronic oral toxicity in rodents, cd1, Feed, dose end: 13 week, group: systemic, systemic / pathology microscopic / liver / hypertrophy + systemic / pathology microscopic / liver / necrosis + systemic / pathology …
[6] = system: rat; conditions: Multigenerational reproductive toxicity study, other, Oral, Feed, dose end: 2 generation
[7] = system: mouse; conditions: Carcinogenicity, cd1, Oral, Feed, dose end: 18 month, group: systemic
[8] = system: rat; conditions: Prenatal developmental toxicity study, sprague dawley, Oral, Gavage/Intubation, dose end: 15 GD; remark: listed apart in the source
[9] = system: dog; conditions: Subchronic oral toxicity in nonrodent, beagle, Feed, dose end: 13 week, group: systemic, systemic / pathology microscopic / stomach / [other]
[10] = system: dog; conditions: Chronic toxicity, beagle, Oral, Feed, dose end: 52 week, group: systemic
[11] = system: mouse; conditions: Carcinogenicity, cd1, Oral, Feed, dose end: 24 month, group: systemic
[12] = system: rat; conditions: Combined chronic toxicity/carcinogenicity, sprague dawley, Oral, Feed, dose end: 24 month, group: systemic
[13] = system: rat; conditions: Subchronic oral toxicity in rodents, other, Feed, dose end: 3 month, group: systemic
[14] = systemic / pathology microscopic / liver / hypertrophy + systemic / pathology microscopic / liver / necrosis + systemic / pathology …
[15] = group: developmental, developmental / developmental malformation / bone / full supernumerary
[16] = group: maternal, systemic / in life observation / body weight / body weight gain + systemic / in life observation / food consumption / food consumption
[17] = group: maternal, systemic / in life observation / body weight / body weight gain + systemic / in life observation / food consumption / food consumption + …
[18] = group: developmental, developmental / developmental malformation / mouth / jaw / cleft palate + systemic / in life observation / body weight / fetal weight
[19] = group: maternal, systemic / in life observation / body weight / body weight gain + systemic / in life observation / clinical signs / ataxia + systemic / in …
[20] = group: offspring, systemic / in life observation / body weight / offspring (pup) weight + systemic / pathology microscopic / liver / hypertrophy
[21] = group: offspring, systemic / in life observation / body weight / offspring (pup) weight + systemic / pathology microscopic / liver / hypertrophy + …
[22] = group: parental, systemic / pathology microscopic / liver / hypertrophy
[23] = group: parental, systemic / pathology microscopic / liver / hypertrophy + systemic / in life observation / food consumption / food consumption + systemic / …
[24] = group: reproductive, reproductive / offspring survival early / litter size / litter size + reproductive / offspring survival early / birth index / live birth …
[25] = systemic / pathology microscopic / liver / hypertrophy + systemic / organ weight / liver / absolute + systemic / organ weight / liver / …
[26] = group: developmental, developmental / developmental malformation / bone / short + developmental / developmental malformation / bone / unossified + developmental…
[27] = systemic / pathology microscopic / mammary gland / hypertrophy
[28] = systemic / pathology microscopic / stomach / hyperemia
[29] = systemic / pathology microscopic / liver / lesion(s) (nos) + systemic / organ weight / liver / nos
[30] = systemic / in life observation / body weight / body weight gain + systemic / pathology microscopic / liver / hypertrophy + systemic / …
[31] = systemic / in life observation / body weight / body weight gain

Structure (SMILES): CCCC1COC(Cn2cncn2)(c2ccc(Cl)cc2Cl)O1 (configuration not stated) [Propiconazole]
- LOAEL ([1]; systemic / pathology microscopic / liver / hypertrophy): 65 mg/kg/day
- LEL ([1]; systemic / pathology microscopic / liver / hypertrophy + systemic / pathology microscopic / liver / necrosis): 65 mg/kg/day
- NEL [1, 14]: 2.7 mg/kg/day
- NOAEL [1, 14]: 2.7 mg/kg/day
- LEL [2]: 65 mg/kg/day
- LOAEL [2]: 65 mg/kg/day
- NEL [2]: 2.7 mg/kg/day
- NOAEL [2]: 2.7 mg/kg/day
- LEL [3, 15]: 400 mg/kg/day
- LOAEL [3, 15]: > 400 mg/kg/day
- NEL [3, 15]: 250 mg/kg/day
- NOAEL [3, 15]: ≥ 400 mg/kg/day
- LEL [3, 16]: 250 mg/kg/day
- LOAEL [3, 16]: 250 mg/kg/day
- NEL [3, 17]: 100 mg/kg/day
- NOAEL [3, 17]: 100 mg/kg/day
- LEL [4, 18]: 300 mg/kg/day
- LOAEL [4, 18]: > 300 mg/kg/day
- NEL [4, 18]: < 300 mg/kg/day
- NOAEL [4, 18]: ≥ 300 mg/kg/day
- LEL [4, 19]: 300 mg/kg/day
- LOAEL [4, 19]: 300 mg/kg/day
- NEL [4, 19]: < 300 mg/kg/day
- NOAEL [4, 19]: < 300 mg/kg/day
- LEL [5]: 65 mg/kg/day
- LOAEL [5]: 65 mg/kg/day
- NEL [5]: 2.7 mg/kg/day
- NOAEL [5]: 2.7 mg/kg/day
- NEL [6, 20]: 48 mg/kg/day
- NOAEL [6, 20]: 48 mg/kg/day
- LEL [6, 21]: 238 mg/kg/day
- LOAEL [6, 21]: 238 mg/kg/day
- LEL [6, 22]: 42 mg/kg/day
- LOAEL [6, 22]: 42 mg/kg/day
- NEL [6, 23]: 8 mg/kg/day
- NOAEL [6, 23]: 8 mg/kg/day
- LEL [6, 24]: 238 mg/kg/day
- LOAEL [6, 24]: > 238 mg/kg/day
- NEL [6, 24]: 48 mg/kg/day
- NOAEL [6, 24]: ≥ 238 mg/kg/day
- LOAEL ([7]; systemic / pathology microscopic / liver / hypertrophy + systemic / in life observation / body weight / body weight gain): 59 mg/kg/day
- LEL ([7]; systemic / pathology microscopic / liver / hypertrophy + systemic / in life observation / body weight / body weight gain + systemic / organ …): 59 mg/kg/day
- NEL [7, 25]: 11 mg/kg/day
- NOAEL [7, 25]: 11 mg/kg/day
- LEL [8, 26]: 90 mg/kg/day
- LOAEL [8, 26]: 90 mg/kg/day
- NEL [8, 26]: 30 mg/kg/day
- NOAEL [8, 26]: 30 mg/kg/day
- LEL [8, 16]: 90 mg/kg/day
- NEL [8, 17]: 30 mg/kg/day
- NOAEL [8, 17]: 90 mg/kg/day
- LOAEL ([8]; group: maternal, systemic / in life observation / clinical signs / ataxia + systemic / in life observation / clinical signs / lethargy + systemic / in life …): 300 mg/kg/day
- LEL [9]: 6.25 mg/kg/day
- LOAEL [9]: 6.25 mg/kg/day
- NEL [9]: 1.25 mg/kg/day
- NOAEL [9]: 1.25 mg/kg/day
- LEL [10, 27]: 1.9 mg/kg/day
- NEL [10, 27]: 0.2 mg/kg/day
- LOAEL [10, 28]: 8.4 mg/kg/day
- NOAEL [10, 28]: 1.9 mg/kg/day
- NEL ([11]; systemic / organ weight / liver / nos + systemic / clinical chemistry / alanine aminotransferase (alt/sgpt) / alanine aminotransferase (alt/…): 10 mg/kg/day
- LEL [11, 29]: 49.4 mg/kg/day
- LOAEL [11, 29]: 49.4 mg/kg/day
- NOAEL ([11]; systemic / pathology microscopic / liver / lesion(s) (nos) + systemic / organ weight / liver / nos + systemic / pathology microscopic / …): 10 mg/kg/day
- LEL [12, 30]: 96.4 mg/kg/day
- LOAEL [12, 30]: 96.4 mg/kg/day
- NOAEL [12, 30]: 18.1 mg/kg/day
- NEL ([12]; systemic / organ weight / liver / nos): 18.1 mg/kg/day
- LEL [13, 31]: 16.8 mg/kg/day
- LOAEL [13, 31]: 77.6 mg/kg/day
- NEL [13, 31]: < 16.8 mg/kg/day
- NOAEL ([13]; systemic / in life observation / body weight / body weight gain + systemic / clinical chemistry / alkaline phosphatase (alp/alk) / alkaline …): 16.8 mg/kg/day
